US20240426807A1, “SCREENING SYSTEM” (Givaudan SA, priority 2021, published 2024)

Experiments:
[1] = molecular target: T1, pool of cells with OR5A1, OR5A2, OR5AN1, OR6Y1, OR10G4, OR10G7 or OR10G9 (Homo sapiens, UniProt Q8NGI8); experiment: Selection of cognate-receptor cells from a pool of OR-expressing cells with the target ligand and puromycin; type: cell-based; settings: 10 μM musk ketone, puromycin 1 μg/ml, pool of 7 OR transfections
T1 construct: expressed in transfected cells; host or cells: HEK293T stably expressing RTP1S and RTP2; 7 separate transfections pooled
T1 sequence (Q8NGI8 1-311): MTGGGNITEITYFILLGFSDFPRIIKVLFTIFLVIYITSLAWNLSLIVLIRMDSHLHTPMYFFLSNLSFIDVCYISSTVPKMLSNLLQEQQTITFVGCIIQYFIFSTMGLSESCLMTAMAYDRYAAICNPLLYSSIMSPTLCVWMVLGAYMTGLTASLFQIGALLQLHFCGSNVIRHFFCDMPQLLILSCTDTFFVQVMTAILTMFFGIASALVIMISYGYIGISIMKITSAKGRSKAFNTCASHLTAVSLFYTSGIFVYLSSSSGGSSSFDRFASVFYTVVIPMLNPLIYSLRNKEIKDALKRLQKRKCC
Experimental: (§1) For many ligands the cognate OR receptors are not known (“orphan receptors”), or it is unknown among a pool of receptors, which one has the best affinity for a ligand of interest, e.g. a perfumery note of particular interest. Thus, the ligand-induced selection pressure can be used to enrich a specific OR-expressing cell from a pool of OR-expressing cells in the presence of a ligand of interest. HEK293T cells stably expressing RTP1S and RTP2 were seeded into 7 wells of 6-well plates at 330,000 cells/well.
(§2) The next day, the cells of each well were transfected with 2 μg of a PvuI-linearized pGL4.29-CRE-Puro-Hygro-OR construct harboring one of the receptors OR5A1 (NCBI Genbank Gene ID: 219982), OR5A2 (NCBI Genbank Gene ID: 219981), OR5AN1 NCBI Genbank Gene ID: 390195, SEQ ID NO: 70), OR6Y1 (NCBI Genbank Gene ID: 391112), OR10G4 (NCBI Genbank Gene ID: 390264, SEQ ID NO: 72), OR10G7 (NCBI Genbank Gene ID: 390265, SEQ ID NO: 71), or OR10G9 (NCBI Genbank Gene ID: 219870). 24 h after transfection, the cells of all 7 transfections were harvested and pooled. 350 cells of this pool of cells with different OR genes inserted were then seeded into each well of seven 96-well plates.
(§3) 3 days later, cells were stimulated with ligands for either OR5AN1 (10 μM musk ketone), OR10G7 (1 μM eugenol), or OR10G4 (100 μM vanitrope). One plate was treated with DMSO only. 6h after the addition of the OR ligands, puromycin was added to each plate at a final concentration of 1 μg/ml. On every day during the following week, the medium on all plates was replaced with fresh medium containing the corresponding ligand and puromycin. The plates were then searched for wells containing only a single colony of puromycin-resistant cells. The cells of those colonies were transferred to larger plates and grown until they had multiplied to about 8 Mio cells. The genomic DNA of 2 Mio cells of each clone were isolated using the Puregene kit according to the manufacturer's protocol. […]

[2] = molecular target: T2, pool of cells with OR5A1, OR5A2, OR5AN1, OR6Y1, OR10G4, OR10G7 or OR10G9 (Homo sapiens, UniProt Q8NGN6); experiment: as above; type: cell-based; settings: 1 μM eugenol, puromycin 1 μg/ml, pool of 7 OR transfections
T2 construct: expressed in transfected cells; host or cells: HEK293T stably expressing RTP1S and RTP2; 7 separate transfections pooled
T2 sequence (Q8NGN6 1-311): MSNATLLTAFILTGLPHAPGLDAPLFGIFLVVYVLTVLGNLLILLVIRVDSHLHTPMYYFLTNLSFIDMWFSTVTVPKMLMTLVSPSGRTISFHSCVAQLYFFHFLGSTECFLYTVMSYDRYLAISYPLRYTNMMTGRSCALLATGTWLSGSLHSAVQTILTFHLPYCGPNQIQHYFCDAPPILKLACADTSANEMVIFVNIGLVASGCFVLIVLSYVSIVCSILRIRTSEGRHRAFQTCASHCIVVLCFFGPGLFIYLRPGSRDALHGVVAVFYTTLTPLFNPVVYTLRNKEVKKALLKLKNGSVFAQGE
Experimental: as §1, §2, §3

Row | SMILES | clones selected with the ligand that contained OR5AN1 [1] [clones] | clones selected with the ligand that contained OR10G7 [2]
1 | CC(=O)c1c(C)c([N+](=O)[O-])c(C(C)(C)C)c([N+](=O)[O-])c1C [musk ketone] | 9 | 
2 | C=CCc1ccc(O)c(OC)c1 [eugenol] |  | 8 out of 8
